Assay results from ChEMBL document CHEMBL4483862, “Open-source discovery of chemical leads for next-generation chemoprotective antimalarials” (2018).

Tested on: Plasmodium berghei
Assay: Luciferase/luciferin-expressing antifolate-resistant parasites were used to infect a culture of HepG2 cells that were pre-incubated with compounds. Infected hepatocytes emit light due to the luciferase reaction. Assay results are presented as the percent inhibition of light emission compared to control. […]
Type: functional
Conditions: sporozoite; for IC90: read-out: LUCIFERASE INFECTION ASSAY - IC90

Structure (SMILES): CC1(C)CCc2cc(-c3ccnc(S)n3)ccc2O1
- IC50 (FFLUC_HILL_SLOPE 9.25, FFLUC_R_SQUARED 0.0162, PBLUC_HILL_SLOPE 0.814, PBLUC_R_SQUARED 0.637, read-out: LUCIFERASE INFECTION ASSAY - IC50): 1.38 µM
- IC90: > 12.1 µM

Structure (SMILES): CCOC(=O)c1ccc(N2C(=O)C=CC2=O)cc1
- IC50 (FFLUC_HILL_SLOPE 9.09, FFLUC_R_SQUARED 0.613, PBLUC_HILL_SLOPE 2.11, PBLUC_R_SQUARED 0.463, read-out: LUCIFERASE INFECTION ASSAY - IC50): 7.08 µM
- IC90: > 13.5 µM

Structure (SMILES): COc1ccc(O)c(/C=N/NC(=O)c2ccc(CSc3nc(C)cc(C)n3)cc2)c1
- IC50 (FFLUC_HILL_SLOPE 9.54, FFLUC_R_SQUARED 0.0205, HEPG2TOX_HILL_SLOPE 2.18, HEPG2TOX_R_SQUARED 0.934, PBLUC_HILL_SLOPE 9.18, PBLUC_R_SQUARED 0.547, read-out: LUCIFERASE INFECTION ASSAY - IC50): 3.84 µM
- IC90: 4.88 µM

Structure (SMILES): CC(C)(C)c1cc(/C=C2\C=c3ccccc3=C2O)cc(C(C)(C)C)c1O
- IC50 (FFLUC_HILL_SLOPE 9.15, FFLUC_R_SQUARED 0.521, read-out: LUCIFERASE INFECTION ASSAY - IC50): > 9.47 µM
- IC90: > 9.47 µM

Structure (SMILES): O=C(NCc1ccccc1)/C(=C/c1ccc(OCc2ccccc2)cc1)c1nc2ccccc2[nH]1
- IC50 (FFLUC_HILL_SLOPE 9.07, FFLUC_R_SQUARED 0.413, PBLUC_HILL_SLOPE 2.18, PBLUC_R_SQUARED 0.79, read-out: LUCIFERASE INFECTION ASSAY - IC50): 0.462 µM
- IC90: 1.26 µM

Structure (SMILES): CC(=O)OCc1ccccc1Sc1ccccc1C(=O)Nc1ccccc1
- IC50 (FFLUC_HILL_SLOPE 9.22, FFLUC_R_SQUARED 0.715, read-out: LUCIFERASE INFECTION ASSAY - IC50): > 8.74 µM
- IC90: > 8.74 µM

Structure (SMILES): Cc1cc(C(=O)COC(=O)c2ccc[nH]c2=O)c(C)n1CC1CCCO1 (configuration not stated)
- IC50 (FFLUC_HILL_SLOPE 9.51, FFLUC_R_SQUARED 0.378, PBLUC_HILL_SLOPE 2.55, PBLUC_R_SQUARED 0.111, read-out: LUCIFERASE INFECTION ASSAY - IC50): 6.62 µM
- IC90: > 10 µM

Structure (SMILES): CCCCNC(=O)c1c(NC(=O)c2cc(OC)cc(OC)c2)nc2ccccn12
- IC50 (FFLUC_HILL_SLOPE 9.35, FFLUC_R_SQUARED 0.0665, PBLUC_HILL_SLOPE 7.48, PBLUC_R_SQUARED 0.629, read-out: LUCIFERASE INFECTION ASSAY - IC50): 4.18 µM
- IC90: 5.61 µM

Structure (SMILES): O=C(c1cccs1)N1[C@@H]2CC[C@@H](C2)[C@H]1c1nc2cccc(OCc3ccc(F)cc3)c2[nH]1
- IC50 (FFLUC_HILL_SLOPE 9.4, FFLUC_R_SQUARED 0.0879, PBLUC_HILL_SLOPE 2.58, PBLUC_R_SQUARED 0.515, read-out: LUCIFERASE INFECTION ASSAY - IC50): 7.57 µM
- IC90: > 10 µM

Structure (SMILES): CN(C)CCNc1ccnc2c(-c3ccccc3F)cnn12
- IC50 (FFLUC_HILL_SLOPE 9.41, FFLUC_R_SQUARED 0.56, PBLUC_HILL_SLOPE 1.12, PBLUC_R_SQUARED 0.894, read-out: LUCIFERASE INFECTION ASSAY - IC50): 0.204 µM
- IC90: 1.46 µM

Structure (SMILES): Cc1cc(C)n(-c2ccc([N+](=O)[O-])cc2S(=O)(=O)N(CC(=O)N2CCCc3ccccc32)c2ccc(Cl)cc2)n1
- IC50 (FFLUC_HILL_SLOPE 9.12, FFLUC_R_SQUARED 0.891, HEPG2TOX_HILL_SLOPE 1.68, HEPG2TOX_R_SQUARED 0.248, PBLUC_HILL_SLOPE 7.9, PBLUC_R_SQUARED 0.762, read-out: LUCIFERASE INFECTION ASSAY - IC50): 3.56 µM
- IC90: 4.71 µM

Structure (SMILES): COc1ccc(NS(=O)(=O)c2cc(NC(=O)c3cccc(OC(F)F)c3)ccc2N2CCCCC2)cc1
- IC50 (FFLUC_HILL_SLOPE 8.96, FFLUC_R_SQUARED 0.85, read-out: LUCIFERASE INFECTION ASSAY - IC50): > 10 µM
- IC90: > 10 µM

Structure (SMILES): Cc1nn(-c2nc3ccccc3s2)c2c1C(c1cc(Br)c(O)c(Br)c1)C1C(=O)CCCC1=N2 (configuration not stated)
- IC50 (FFLUC_HILL_SLOPE 9.07, FFLUC_R_SQUARED 0.197, PBLUC_HILL_SLOPE 1.11, PBLUC_R_SQUARED 0.592, read-out: LUCIFERASE INFECTION ASSAY - IC50): 4.69 µM
- IC90: > 10 µM

Structure (SMILES): COc1cccc(N(C(=O)c2ccc3c(c2)OCO3)c2nc(-c3ccc(Cl)cc3Cl)cs2)c1
- IC50 (FFLUC_HILL_SLOPE 8.73, FFLUC_R_SQUARED 0.44, PBLUC_HILL_SLOPE 14.1, PBLUC_R_SQUARED 0.181, read-out: LUCIFERASE INFECTION ASSAY - IC50): 8.64 µM
- IC90: > 10 µM

Structure (SMILES): Cc1ccc(CSc2nc3c(c(-c4cccs4)c2C#N)CCCC3)cc1
- IC50 (FFLUC_HILL_SLOPE 8.93, FFLUC_R_SQUARED 0.64, PBLUC_HILL_SLOPE 2.69, PBLUC_R_SQUARED 0.339, read-out: LUCIFERASE INFECTION ASSAY - IC50): 6.13 µM
- IC90: > 8.76 µM

Structure (SMILES): CSc1nc(C)nc(C)c1C(=O)Nc1nc(-c2ccc3c(c2)CCCC3)cs1
- IC50 (FFLUC_HILL_SLOPE 9.1, FFLUC_R_SQUARED 0.159, read-out: LUCIFERASE INFECTION ASSAY - IC50): > 10 µM
- IC90: > 10 µM

Structure (SMILES): CC(Sc1nnc(-c2cccs2)n1C(C)C1CC2CCC1C2)C(=O)N1CCCc2ccccc21 (configuration not stated)
- IC50 (FFLUC_HILL_SLOPE 9.01, FFLUC_R_SQUARED 0.23, read-out: LUCIFERASE INFECTION ASSAY - IC50): > 10 µM
- IC90: > 10 µM

Structure (SMILES): Cc1cc(C(=O)CN2CCC(C(=O)Nc3ccc4c(c3)OCO4)CC2)c(C)n1Cc1cccs1
- IC50 (FFLUC_HILL_SLOPE 9.45, FFLUC_R_SQUARED 0.378, read-out: LUCIFERASE INFECTION ASSAY - IC50): > 10 µM
- IC90: > 10 µM

Structure (SMILES): CCCCc1ccc(NC2=C(Cl)C(=O)c3ccccc3C2=O)cc1
- IC50 (FFLUC_HILL_SLOPE 9.03, FFLUC_R_SQUARED 0.305, HEPG2TOX_HILL_SLOPE 8.62, HEPG2TOX_R_SQUARED 0.549, PBLUC_HILL_SLOPE 14.3, PBLUC_R_SQUARED 0.552, read-out: LUCIFERASE INFECTION ASSAY - IC50): 3.1 µM
- IC90: 3.62 µM

Structure (SMILES): CNc1snc(C)c1C(=O)OCc1cc(Cl)ccc1OC
- IC50 (FFLUC_HILL_SLOPE 8.97, FFLUC_R_SQUARED 0.0554, PBLUC_HILL_SLOPE 11, PBLUC_R_SQUARED 0.441, read-out: LUCIFERASE INFECTION ASSAY - IC50): 3.41 µM
- IC90: 4.16 µM

Structure (SMILES): Cc1ccc(-n2c(SCC(=O)NC34CC5CC(CC(C5)C3)C4)nnc2-c2ccccc2)cc1C
- IC50 (FFLUC_HILL_SLOPE 8.79, FFLUC_R_SQUARED 0.279, read-out: LUCIFERASE INFECTION ASSAY - IC50): > 10 µM
- IC90: > 10 µM

Structure (SMILES): CSC1=C(C#N)C(=O)NC(c2c(Cl)cccc2Cl)S1 (configuration not stated)
- IC50 (FFLUC_HILL_SLOPE 9.34, FFLUC_R_SQUARED 0.0497, read-out: LUCIFERASE INFECTION ASSAY - IC50): > 9.96 µM
- IC90: > 9.96 µM

Structure (SMILES): N#Cc1ccccc1NC(=O)CSc1nc2scc(-c3ccccc3Cl)c2c(=O)n1CCc1ccccc1
- IC50 (FFLUC_HILL_SLOPE 9.25, FFLUC_R_SQUARED 0.857, PBLUC_HILL_SLOPE 5.48, PBLUC_R_SQUARED 0.817, read-out: LUCIFERASE INFECTION ASSAY - IC50): 6.05 µM
- IC90: 9.03 µM

Structure (SMILES): CCOC(=O)C1C(C)=NC2=C(C(=O)CC(c3ccc(F)cc3)C2)C1c1ccccc1C(F)(F)F (configuration not stated)
- IC50 (FFLUC_HILL_SLOPE 9.32, FFLUC_R_SQUARED 0.536, HEPG2TOX_HILL_SLOPE 7.97, HEPG2TOX_R_SQUARED 0.882, PBLUC_HILL_SLOPE 14, PBLUC_R_SQUARED 0.0949, read-out: LUCIFERASE INFECTION ASSAY - IC50): 6.64 µM
- IC90: > 6.97 µM

Structure (SMILES): COc1ccc(-c2cnc3cnc(-c4ccc(CNc5ccccc5)cc4)cn23)cc1
- IC50 (FFLUC_HILL_SLOPE 9.54, FFLUC_R_SQUARED 0.167, PBLUC_HILL_SLOPE 2.96, PBLUC_R_SQUARED 0.482, read-out: LUCIFERASE INFECTION ASSAY - IC50): 4.66 µM
- IC90: > 8.12 µM

Structure (SMILES): CC(=O)c1cccc(-c2cnc3cnc(-c4ccc(CNc5ccccc5)cc4)cn23)c1
- IC50 (FFLUC_HILL_SLOPE 9.2, FFLUC_R_SQUARED 0.0159, PBLUC_HILL_SLOPE 3.04, PBLUC_R_SQUARED 0.57, read-out: LUCIFERASE INFECTION ASSAY - IC50): 4.89 µM
- IC90: > 7.89 µM

Structure (SMILES): O=C(Nc1nc2ccccc2[nH]1)c1ccc(S(=O)(=O)N2CCc3ccccc3C2)cc1
- IC50 (FFLUC_HILL_SLOPE 9.27, FFLUC_R_SQUARED 0.301, PBLUC_HILL_SLOPE 0.89, PBLUC_R_SQUARED 0.688, read-out: LUCIFERASE INFECTION ASSAY - IC50): 4.81 µM
- IC90: > 10 µM

Structure (SMILES): Cc1cc2nnc(-c3ccc(C(F)(F)F)cc3)n2[nH]1
- IC50 (FFLUC_HILL_SLOPE 9.36, FFLUC_R_SQUARED 0.07, PBLUC_HILL_SLOPE 1.33, PBLUC_R_SQUARED 0.805, read-out: LUCIFERASE INFECTION ASSAY - IC50): 3.1 µM
- IC90: > 12.4 µM

Structure (SMILES): Cc1ccccc1-c1cn2c(-c3ccc(O)cc3)cnc2cn1
- IC50 (FFLUC_HILL_SLOPE 9.55, FFLUC_R_SQUARED 0.182, HEPG2TOX_HILL_SLOPE 2.1, HEPG2TOX_R_SQUARED 0.88, PBLUC_HILL_SLOPE 16, PBLUC_R_SQUARED 0.259, read-out: LUCIFERASE INFECTION ASSAY - IC50): 3.41 µM
- IC90: 3.92 µM

Structure (SMILES): CC(C)=CC(=O)Nc1scc(-c2ccccc2)c1C(=O)OCc1nnc(-c2cccs2)o1
- IC50 (FFLUC_HILL_SLOPE 8.85, FFLUC_R_SQUARED 0.514, PBLUC_HILL_SLOPE 2.24, PBLUC_R_SQUARED 0.566, read-out: LUCIFERASE INFECTION ASSAY - IC50): 5.03 µM
- IC90: > 10 µM

Structure (SMILES): O=S(=O)(c1ccccc1)N1[C@@H]2CC[C@@H](C2)[C@H]1c1nc2c(OCCC3CCCCC3)cccc2[nH]1
- IC50 (FFLUC_HILL_SLOPE 8.97, FFLUC_R_SQUARED 0.445, PBLUC_HILL_SLOPE 2.11, PBLUC_R_SQUARED 0.35, read-out: LUCIFERASE INFECTION ASSAY - IC50): 6.12 µM
- IC90: > 10 µM
